# Laboratory results: patent US20100041679A1, “ORAL DIETING COMPOSITION COMPRISING CONJUGATED LINOLEIC ACID AND CAFFEINE” (Institut Phytoceutic, priority 2004, published 2010)
# Experiment: Additional study on 24 people with excess weight, formulations given orally, two sachets/day for one month, weight loss
# Type: in vivo, human
# Conditions: oral route
# Description: An additional study was carried out on 24 people with excess weight, to whom the formulations of the following table were administered by the oral route, in an amount of two sachets/day for one month, without changing their dietary habits.
substance,measurement,setting,value
Conjugated linoleic acid,"weight loss observed, significance in words",,not significant
same,Weight loss observed (as % by weight),dietary habits unchanged,−1.8 (N.S.) % by weight
